Measured values published in EP0335745A1, “Process for producing pyrid-4-ones” (THE ROYAL FREE HOSPITAL SCHOOL OF MEDICINE, priority 1988, dated 1989).
Like-named read-outs stand apart in the source and are kept apart here.

Assays:
[1] = tested on: iron loaded ⁵⁹Fe transferrin labelled mice; test: Iron mobilisation (59Fe excretion) from iron loaded 59Fe transferrin labelled mice; assay type: in vivo; conditions: dose 10mg; for %⁵⁹Fe excretion X ± SE: mice 31-35g, mean of 3 days before chelator administration = 100%
Text: Iron mobilisation from iron loaded ⁵⁹Fe transferrin labelled mice by the 1-alkyl-2-ethyl-3-hydroxypyrid-4-ones was studied as previously described.

[2] = pKa determination of the chelators; assay type: physicochemical
male Sprague Dawley rats = test: Lethal dose range in rats, intraperitoneal administration; assay type: in vivo
Experimental: The three 1-alkyl-3-hydroxy-2-methylpyrid-4-ones dissolved in phosphate buffer saline were administered intraperitoneally to groups of three male Sprague Dawley rats (60-90g) at different doses until a near maximum non-lethal dose was established.

human transferrin = target: T1, human transferrin (Homo sapiens, UniProt P02787); test: Iron mobilisation from 59Fe transferrin by dialysis against chelator solution; assay type: biochemical; conditions: chelator 4x10⁻³M, 37°C, pH 7.3, 2 x PBS
T1 construct: purchased Sigma
T1 sequence (P02787 20-698): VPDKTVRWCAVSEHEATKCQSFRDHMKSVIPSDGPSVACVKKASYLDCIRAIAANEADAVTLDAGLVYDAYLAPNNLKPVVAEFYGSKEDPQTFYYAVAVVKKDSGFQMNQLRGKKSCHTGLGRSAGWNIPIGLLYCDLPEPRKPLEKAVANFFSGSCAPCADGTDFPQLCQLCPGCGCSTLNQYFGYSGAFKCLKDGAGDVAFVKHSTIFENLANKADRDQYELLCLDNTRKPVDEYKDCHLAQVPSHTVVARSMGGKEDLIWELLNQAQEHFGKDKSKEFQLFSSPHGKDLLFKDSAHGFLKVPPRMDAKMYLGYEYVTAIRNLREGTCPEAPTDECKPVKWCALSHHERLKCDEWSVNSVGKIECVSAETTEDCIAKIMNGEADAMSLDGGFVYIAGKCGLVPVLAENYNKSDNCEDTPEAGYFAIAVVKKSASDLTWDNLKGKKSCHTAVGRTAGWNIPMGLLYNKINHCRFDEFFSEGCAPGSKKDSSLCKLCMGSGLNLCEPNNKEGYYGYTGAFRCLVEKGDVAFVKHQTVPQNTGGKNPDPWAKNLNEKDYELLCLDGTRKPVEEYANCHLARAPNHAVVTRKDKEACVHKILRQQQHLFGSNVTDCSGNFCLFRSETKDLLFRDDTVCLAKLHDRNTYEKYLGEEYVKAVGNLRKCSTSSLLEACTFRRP
Experimental: Human apotransferrin (Sigma) was radioactively labelled with ⁵⁹Fe and saturated with iron as previously described. Samples (1.5ml) of the ⁵⁹Fe transferrin (0.54mg protein, 0.75 µg iron, 0.07 µCi ⁵⁹Fe) were enclosed in a dialysis bag and dialysed against a chelator solution (10ml, 4mM) by continuous stirring at 37°C. Samples (1ml) of the dialysate were removed at different time intervals, the ⁵⁹Fe activity measured and then returned back into the incubation mixture. Ferritin solution and haemosiderin solid were isloated from a spleen of a thalassemia patient and samples containing the same amount of iron (0.25mg, 1.5ml) were dialysed at 37°C against a chelator solution (4mM, 10ml) over a 12 day period. The amount of iron immobilised was estimated spectrophotometrically by measuring the visible absorbance of the dialysate and by using the extinction coefficient of the chelator iron complex (Fig 3, Table 6). All the protein incubations with the chelators were carried out in the 2xPBS pH 7.3.
Haemosiderin (0.25mg iron, 16.5% w/w iron, […]) ferritin (0.25mg iron, 10.7% w/w iron, 1.5ml) and transferrin (0.75ug iron, 0.54mg protein, 0.07 uCi ⁵⁹Fe, 1.5ml) in dialysis bags were dialysed against the chelators (4x10⁻³M, 10ml) at 37°C, pH 7.3 in 2 x PBS by continuous stirring. Iron mobilisation was estimated from samples of the dialysates taken at different time intervals as explained in the Materials and Methods section.

[3] = n-octanol/water (PBS) partition coefficient (K par) of the chelators and their iron complexes; assay type: physicochemical; conditions: for Kpar Chelator / Kpar iron Complex: n-octanol/phosphate buffer saline (PH 7.3), Table 7; for Kpar Chelator / K par Chelator: free chelator; for K par Chelator / K par Iron Complex: n-octanol/water (PBS), Table 4; for K par Iron Complex: iron complex of the chelator
Experimental: The n-octanol/water (PBS) partition coefficients (K par) of the chelators and their iron complexes were determined using a previously determined method.
(§1) The partition coefficients of the chelators and their iron complexes were determined using a mixture of n-octanol and phosphate buffer saline at pH 7.3 as previously described. The effect of the chelators on the incorporation of iron containing traces of ⁵⁹Fe into red blood cells was studied as previously described by incubating the chelator iron complexes with packed red blood cells at 37°C, withdrawing aliquots, centrifuging and measuring the incorporation of ⁵⁹Fe into the red blood cells.

red blood cells = test: Red blood cell permeability: incorporation of 59Fe into red blood cells in the presence of the chelators; assay type: cell-based; conditions: iron 2.5 x 10⁻⁵M, chelators 18 x 10⁻⁵M, packed red blood cells, 37°C
Experimental: as §1

loaded mice and rabbits = conditions: doses of up to 200 mg/kg, also non iron loaded mice; cited from earlier work
haemosiderin = test: Iron mobilisation from haemosiderin by dialysis against chelator solution; assay type: biochemical, human; conditions: chelator 4x10⁻³M, 37°C, pH 7.3, 2 x PBS, * = duplicate samples
Experimental: • Fig 1: pH titration of the chelator iron complexes. Chelators (2mM in 0.1M NaCl, 25ml) and freshly prepared iron (III) chloride (0.5mM in 0.1M NaCl, 25ml) were mixed and titrated with HCl (10M) and NaOH (5M). The absorbance of the chelator iron mixture at 460nm was measured after each pH change. 1-Methyl- (Δ), 1-ethyl- (□) and 1-propyl- (◇) -2-ethyl-3-hydroxypyrid-4-ones. • Fig 2: • A. Job plots of the 1-alkyl-2-ethyl-3-hydroxypyrid-4-ones with iron at pH 7.3. Chelators (2mM in […] 0-5ml) and iron (2mM in 0.1M NaCl, 0-5ml) were mixed at different molar ratios to a final volume of 5ml. 4 x PBS (5ml), pH 7.3 was then added and the absorbance at 460nm measured. […] Theoretical Job plots for 1:1, 2:1, 3:1 chelator:iron complexes were obtained using the maximum absorbance values from the Job plots in A. 1:1 (◇) 2:1 (□), 3:1 (Δ). • Fig. 3: Iron mobilisation from human ferritin and haemosiderin using 1-alkyl-2-ethyl-3-hydroxypyrid-4-ones. […] The progress of the reaction was followed by measuring the absorbance at 460nm of the dialysate at different time intervals.
Human apotransferrin (Sigma) was radioactively labelled with ⁵⁹Fe and saturated with iron as previously described. […] Samples (1ml) of the dialysate were removed at different time intervals, the ⁵⁹Fe activity measured and then returned back into the incubation mixture. […]

[4] = pKa of the hydroxyl group, read-out: Pka(2)
[5] = male, Sprague Dawley, rat, in vivo, ip

SMILES | %⁵⁹Fe excretion X ± SE ([1]; ip) [%] | pKa [2, 4] | pKa ([2]; read-out: PKa(1)) | Lethal Dose (range) (male Sprague Dawley rats; [5]) [mg/kg] | Percentage Iron Removal Transferrin ⁵⁹Fe 1h (human transferrin) | Percentage Iron Removal Transferrin ⁵⁹Fe 2h (human transferrin) | Percentage Iron Removal Transferrin ⁵⁹Fe 8h (human transferrin) | Kpar Chelator [3] | Kpar iron Complex [3] | K par Chelator [3] | K par Iron Complex [3] | ⁵⁹Fe incorporation (%) 20 min (red blood cells) [%] | ⁵⁹Fe incorporation (%) 1h (red blood cells) [%] | increasing iron excretion (loaded mice and rabbits) | Lethal Dose (range) (male Sprague Dawley rats; rats, intraperitoneally, range of doses, the higher being lethal and the lower a non-lethal dose) [mg/kg] | %⁵⁹Fe excretion X ± SE ([1]; ig) [%] | death of mice before the completion of the treatment ([1]; mice, ip or ig, 11 administrations) | Percentage Iron Removal Haemosiderin 24h (haemosiderin; 24h) | Percentage Iron Removal Haemosiderin 12d (haemosiderin; 12d)
CC(=O)N(O)CCCCCNC(=O)CCC(=O)N(O)CCCCCNC(=O)CCC(=O)N(O)CCCCCN [Desferrioxamine, reference compound] | 381 ± 49 |  |  |  |  |  |  |  |  |  |  |  |  |  |  |  |  |  | 
Cc1c(O)c(=O)ccn1C [Example 1, 1,2-Dimethyl-3-hydroxypyrid-4-one] |  | 9.7 | 3.3 | 600 to 700 | 37.3 | 69.9 | 99.5 | 0.19 | 0.24 | 0.19 | 0.24 | 5.0 | 5.0 | effective |  |  |  |  | 
CCn1ccc(=O)c(O)c1C [Example 2, 1-Ethyl-3-hydroxy-2-methylpyrid-4-one] |  | 10.3 | 3.6 |  |  |  |  | 0.47 | 0.52 | 0.37 | 0.52 | 5.0 | 10 | effective | 400 to 500 |  |  |  | 
CCc1c(O)c(=O)ccn1C [Example 4, 2-Ethyl-3-hydroxy-1-methylpyrid-4-one] | 415 ± 42 | 9.8 | 3.7 |  | 36.0 | 56.6 | 100.0 |  |  | 0.4 | 0.02 |  |  |  |  | 362 ± 53 |  |  | 
CCCn1ccc(=O)c(O)c1CC [Example 6, 2-ethyl-3-hydroxy-1-propylpyrid-4-one] | 334 ± 64 | 10.1 | 3.4 |  | 23.2 | 50.3 | 97.6 |  |  | 4.2 | 9.68 |  |  |  |  | 163 ± 25 | caused death to two mice | 27.8 | 74.5
CCCn1ccc(=O)c(O)c1C [Example 3, 3-Hydroxy-2-methyl-1-propylpyrid-4-one] |  | 10.2 | 3.7 | 150 to 200 |  |  |  |  |  |  |  | 85 | 86 |  |  |  |  |  | 
CCc1c(O)c(=O)ccn1CC [Example 5, 1,2-diethyl-3-hydroxypyrid-4-one] | 371 ± 46 | 10.1 | 3.7 |  | 24.9 | 51.8 | 96.6 |  |  | 1.4 | 0.28 |  |  |  |  | 309 ± 22 |  |  | 
